Source: PubChem BioAssay (NCI)
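Assay format: 96-well plates, 48-hour exposure. GI50 is the concentration that inhibits growth by half. Definition used: TGI = concentration required for complete inhibition of growth.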

Experiments:
Assay in all cases: inhibition of tumour cell growth, NCI panel, 48 h
[1] = tested on: HCT-15 colon
[2] = tested on: MDA-MB-231 breast
[3] = tested on: UACC-62 melanoma
[4] = tested on: NCI/ADR-RES ovarian
[5] = tested on: UO-31 renal
[6] = tested on: CAKI-1 renal
[7] = tested on: BT-549 breast
[8] = tested on: SN12C renal
[9] = tested on: LOX IMVI melanoma
[10] = tested on: NCI-H23 lung
[11] = tested on: EKVX NSCLC
[12] = tested on: SF-268 CNS
[13] = tested on: RXF 393 renal
[14] = tested on: NCI-H226 lung
[15] = tested on: HOP-62 NSCLC
[16] = tested on: SK-OV-3 ovarian
[17] = tested on: PC-3 prostate
[18] = tested on: SK-MEL-28 melanoma
[19] = tested on: IGROV1 ovarian
[20] = tested on: M14 melanoma
[21] = tested on: MALME-3M melanoma
[22] = tested on: 786-0 renal
[23] = tested on: A498 renal
[24] = tested on: HCT-116 colon
[25] = tested on: UACC-257 melanoma
[26] = tested on: HOP-92 NSCLC
[27] = tested on: TK-10 renal
[28] = tested on: NCI-H522 lung
[29] = tested on: COLO 205 colon
[30] = tested on: SNB-19 CNS
[31] = tested on: A549 NSCLC
[32] = tested on: HS 578T breast
[33] = tested on: SF-539 CNS
[34] = tested on: SNB-75 CNS
[35] = tested on: MCF7 breast
[36] = tested on: HCC-2998 colon
[37] = tested on: OVCAR-5 ovarian
[38] = tested on: SF-295 CNS
[39] = tested on: MDA-MB-468 breast
[40] = tested on: RPMI-8226 leukemia
[41] = tested on: T-47D breast
[42] = tested on: SK-MEL-2 melanoma
[43] = tested on: K-562 leukemia
[44] = tested on: SK-MEL-5 melanoma
[45] = tested on: ACHN renal
[46] = tested on: OVCAR-4 ovarian
[47] = tested on: DU-145 prostate
[48] = tested on: HL-60(TB) leukemia

COc1ccc2c(c1)c(-c1cc3nc(-c4cn(C)c5ncc(Br)cc45)cc(N)n3n1)cn2C
GI50 [1]: 1.48 µM | TGI [1]: 3.54 µM | GI50 [2]: 1.62 µM | TGI [2]: 3.28 µM | GI50 [3]: 1.56 µM | TGI [3]: 3.1 µM | GI50 [4]: 2.28 µM | TGI [4]: 5.62 µM | GI50 [5]: 1.78 µM | TGI [5]: 4.41 µM | GI50 [6]: 1.48 µM | TGI [6]: 3.3 µM | GI50 [7]: 2.12 µM | TGI [7]: 4.49 µM | GI50 [8]: 2.11 µM | TGI [8]: 6.03 µM | GI50 [9]: 1.53 µM | TGI [9]: 2.89 µM | GI50 [10]: 2.25 µM | TGI [10]: 6.77 µM | GI50 [11]: 1.48 µM | TGI [11]: 3.39 µM | GI50 [12]: 2.3 µM | TGI [12]: 6.14 µM | GI50 [13]: 1.96 µM | TGI [13]: 3.57 µM | GI50 [14]: 4.19 µM | TGI [14]: 20.1 µM | GI50 [15]: 2.09 µM | TGI [15]: 5.98 µM | GI50 [16]: 2.41 µM | TGI [16]: 6.25 µM | GI50 [17]: 2.45 µM | TGI [17]: > 100 µM | GI50 [18]: 1.61 µM | TGI [18]: 3.02 µM | GI50 [19]: 2.04 µM | TGI [19]: 4.54 µM | GI50 [20]: 1.66 µM | TGI [20]: 3.23 µM | GI50 [21]: 1.92 µM | TGI [21]: 3.47 µM | GI50 [22]: 1.73 µM | TGI [22]: 3.16 µM | GI50 [23]: 2.18 µM | TGI [23]: 7.22 µM | GI50 [24]: 1.66 µM | TGI [24]: 3.04 µM | GI50 [25]: 1.79 µM | TGI [25]: 3.72 µM | GI50 [26]: 2.05 µM | TGI [26]: 4.24 µM | GI50 [27]: 2.36 µM | TGI [27]: 6.69 µM | GI50 [28]: 1.87 µM | TGI [28]: 3.9 µM | GI50 [29]: 1.81 µM | TGI [29]: 3.44 µM | GI50 [30]: 2.25 µM | TGI [30]: 5.58 µM | GI50 [31]: 2.31 µM | TGI [31]: 9.05 µM | GI50 [32]: 2.29 µM | TGI [32]: 6.47 µM | GI50 [33]: 1.67 µM | TGI [33]: 3.13 µM | GI50 [34]: 1.66 µM | TGI [34]: 4.58 µM | GI50 [35]: 1.77 µM | TGI [35]: 3.72 µM | GI50 [36]: 1.66 µM | TGI [36]: 3.16 µM | GI50 [37]: 1.63 µM | TGI [37]: 3.96 µM | GI50 [38]: 1.77 µM | TGI [38]: 3.65 µM | GI50 [39]: 1.32 µM | TGI [39]: 2.82 µM | GI50 [40]: 3.32 µM | TGI [40]: > 100 µM | GI50 [41]: 1.66 µM | TGI [41]: 3.68 µM | GI50 [42]: 2.07 µM | TGI [42]: 4.84 µM | GI50 [43]: 3.17 µM | TGI [43]: > 100 µM | GI50 [44]: 3.27 µM | TGI [44]: 12.1 µM | GI50 [45]: 1.5 µM | TGI [45]: 3.15 µM | GI50 [46]: 2.13 µM | TGI [46]: 5.17 µM | GI50 [47]: 2.79 µM | TGI [47]: 8.15 µM | GI50 [48]: 2.07 µM | TGI [48]: 5.39 µM
